Measured values as given in paper PMC6155255, “Synthetic Peptides Derived from Bovine Lactoferricin Exhibit Antimicrobial Activity against E. coli ATCC 11775, S. maltophilia ATCC 13636 and S. enteritidis ATCC 13076” (Molecules : A Journal of Synthetic Chemistry and Natural …, 2017).
Where two headings read alike, the source gives them in different places. Positions of bridges follow the written chain, without caps; N, C: chain ends. Non-standard residues stand in square brackets, D forms with d. Residues, ends and D or L forms follow the SMILES beside them. Chains are numbered I, II in the order given. No end group written: not given here. Ahx = NCCCCCC(=O)O

Legend:
E. coli ATCC 11775 = type: cell-based, Escherichia coli
Experimental: (§1) The MIC and MBC were determined using a microdilution assay. In brief, bacterial strains were incubated for 18 to 24 h at 37 °C in an MH broth until an optical density of 0.15 to 0.30 (620 nm) was obtained. 90 µL of Mueller-Hinton broth (MHB) were mixed with 90 µL of peptide (440 µg/mL), and using a 96-well microtiter plate peptide, serial dilution (200, 100, 50, 25, 12.5, and 6.2 µg/mL) was performed. 10 µL of inoculum (2 × 10^6 CFU/mL) was added to each well. Final volume in each well was 100 µL. Then they were incubated for 24 h at 37 °C; and the absorbance at 620 nm was measured using an Asys Expert Plus ELISA reader. To determine the MBC, an aliquot was taken from each well and was spread onto a MHA plate. After 24 h at 37 °C, the CFU/mL was determined. Each of these tests was performed twice.

[1] = tested on: S. maltophilia ATCC 13636; type: cell-based, Stenotrophomonas maltophilia
Experimental: as §1

[2] = tested on: S. enteritidis ATCC 13076; type: cell-based, Salmonella enteritidis
Experimental: as §1

E. coli ATCC 25922 [3] = conditions: cited from earlier work
Experimental: This apparent discrepancy could be related to the method used for determining the MIC [46, 47]. The antibacterial activity of LfcinB against E. coli IID861 was determined using the microdilution method with Mueller-Hinton broth (MIC = 50 µg/mL) or peptone-based broth (MIC = 6 µg/mL). […] Antibacterial activity against E. coli ATCC 25922 has also been reported, s ...

E. coli K88 = tested on: E. coli K88; parameters: method as in PMID 11248238, PMID 21607695, doi:10.1002/(SICI)1099-1387(199901)5:1<32::AID-PSC172>3.0.CO; conditions: cited from earlier work
E. coli ATCC 25922 [4] = tested on: E. coli ATCC 25922
[5] = E. coli ATCC 11775, aliquot of each well spread on MHA plate, 24 h at 37 °C, CFU/mL, performed twice
[6] = E. coli ATCC 11775, microdilution, Mueller-Hinton broth, 24 h at 37 °C, absorbance 620 nm, 6.2-200 µg/mL tested, performed twice
[7] = E. coli ATCC 11775, value in brackets (µM), aliquot spread on MHA plate, 24 h at 37 °C, performed twice
[8] = E. coli ATCC 11775, value in brackets (µM), microdilution, Mueller-Hinton broth, 24 h at 37 °C, performed twice
[9] = S. maltophilia ATCC 13636, aliquot of each well spread on MHA plate, 24 h at 37 °C, CFU/mL, performed twice
[10] = S. maltophilia ATCC 13636, microdilution, Mueller-Hinton broth, 24 h at 37 °C, absorbance 620 nm, 6.2-200 µg/mL tested, performed twice
[11] = S. enteritidis ATCC 13076, aliquot of each well spread on MHA plate, 24 h at 37 °C, CFU/mL, performed twice
[12] = S. enteritidis ATCC 13076, microdilution, Mueller-Hinton broth, 24 h at 37 °C, absorbance 620 nm, 6.2-200 µg/mL tested, performed twice

Compound	MBC (E. coli ATCC 11775; ATCC 11775, 24 h) [µM]	MIC (E. coli ATCC 11775; ATCC 11775, 24 h) [µM]	MBC (E. coli ATCC 11775; [5]) [µg/mL]	MIC (E. coli ATCC 11775; [6]) [µg/mL]	MBC (E. coli ATCC 11775; [7]) [µM]	MIC (E. coli ATCC 11775; [8]) [µM]	MBC ([1]; ATCC 13636, 24 h)	MIC ([1]; ATCC 13636, 24 h)	MBC [1, 9] [µg/mL]	MIC [1, 10] [µg/mL]	MBC ([2]; ATCC 13076, 24 h) [µM]	MIC ([2]; ATCC 13076, 24 h) [µM]	MBC [2, 11] [µg/mL]	MIC [2, 12] [µg/mL]	MIC ([2]; S. enteritidis ATCC 13076, value in brackets (µM), microdilution, Mueller-Hinton broth, 24 h at 37 °C, performed twice) [µM]	MIC (E. coli ATCC 25922 [3]) [µg/mL]	MIC (E. coli K88) [µg/mL]	MIC (E. coli ATCC 25922 [4]) [µg/mL]	MIC (E. coli ATCC 25922 [3]; palindromic sequences) [µg/mL]
CSCC[C@H](NC(=O)[C@H](CCCNC(=N)N)NC(=O)[C@H](Cc1c[nH]c2ccccc12)NC(=O)[C@H](CCC(N)=O)NC(=O)[C@H](Cc1c[nH]c2ccccc12)NC(=O)[C@H](CCCNC(=N)N)NC(=O)[C@H](CCCNC(=N)N)NC(=O)[C@H](CS)NC(=O)[C@H](CCCCN)NC(=O)[C@@H](N)Cc1ccccc1)C(=O)N[C@@H](CCCCN)C(=O)N[C@@H](CCCCN)C(=O)N[C@@H](CC(C)C)C(=O)NCC(=O)N[C@@H](C)C(N)=O [LfcinB 17–31]	13	13	25	25	12.5	12.5	> 100 µM	> 100 µM	> 200	> 200	100	> 100	200	> 200					
N=C(N)NCCC[C@H](NC(=O)[C@H](Cc1c[nH]c2ccccc12)NC(=O)[C@H](CCC(N)=O)NC(=O)[C@H](Cc1c[nH]c2ccccc12)NC(=O)[C@H](CCCNC(=N)N)NC(=O)[C@@H](N)CCCNC(=N)N)C(=O)NCCCC[C@H](NC(=O)[C@H](CCCNC(=N)N)NC(=O)[C@H](Cc1c[nH]c2ccccc12)NC(=O)[C@H](CCC(N)=O)NC(=O)[C@H](Cc1c[nH]c2ccccc12)NC(=O)[C@H](CCCNC(=N)N)NC(=O)[C@@H](N)CCCNC(=N)N)C(=O)NCCCCCC(N)=O [LfcinB (20–25)2] (I: H-RRWQWRK[Ahx]-NH2 / II: H-RRWQWR; amide I:7-II:C)	3	3	6.2	6.2	2.8	2.8	22.4 µM	22.4 µM	50	50	5.6	6	12.5	12.5	5.6				
N=C(N)NCCC[C@H](NC(=O)[C@H](Cc1c[nH]c2ccccc12)NC(=O)[C@H](CCC(N)=O)NC(=O)[C@H](Cc1c[nH]c2ccccc12)NC(=O)[C@H](CCCNC(=N)N)NC(=O)[C@@H](N)CCCNC(=N)N)C(=O)NCCCC[C@H](NC(=O)[C@H](CCCNC(=N)N)NC(=O)[C@H](Cc1c[nH]c2ccccc12)NC(=O)[C@H](CCC(N)=O)NC(=O)[C@H](Cc1c[nH]c2ccccc12)NC(=O)[C@H](CCCNC(=N)N)NC(=O)[C@@H](N)CCCNC(=N)N)C(=O)NCCCCCC(=O)N[C@@H](CSSC[C@H](NC(=O)CCCCCNC(=O)[C@H](CCCCNC(=O)[C@H](CCCNC(=N)N)NC(=O)[C@H](Cc1c[nH]c2ccccc12)NC(=O)[C@H](CCC(N)=O)NC(=O)[C@H](Cc1c[nH]c2ccccc12)NC(=O)[C@H](CCCNC(=N)N)NC(=O)[C@@H](N)CCCNC(=N)N)NC(=O)[C@H](CCCNC(=N)N)NC(=O)[C@H](Cc1c[nH]c2ccccc12)NC(=O)[C@H](CCC(N)=O)NC(=O)[C@H](Cc1c[nH]c2ccccc12)NC(=O)[C@H](CCCNC(=N)N)NC(=O)[C@@H](N)CCCNC(=N)N)C(N)=O)C(N)=O [LfcinB (20–25)4] (I: H-RRWQWRK[Ahx]C-NH2 / II: H-RRWQWRK[Ahx]C-NH2 / III: H-RRWQWR / IV: H-RRWQWR; amide I:7-III:C, II:7-IV:C; disulfide I:9-II:9)	5	5	25	25	5.5	5.5	44 µM	> 44 µM	200	> 200	22	44	100	200					
N=C(N)NCCC[C@@H]1NC(=O)[C@H](Cc2c[nH]c3ccccc23)NC(=O)[C@H](CCC(N)=O)NC(=O)[C@H](Cc2c[nH]c3ccccc23)NC(=O)[C@H](CCCNC(=N)N)NC(=O)[C@H](CCCNC(=N)N)NC(=O)[C@@H](N)CSSC[C@@H](C(N)=O)NC(=O)CCCCCNC1=O [LfcinB (20–25)Cyc] (H-CRRWQWR[Ahx]C-NH2; disulfide 1-9; N-terminus assumed)	19	19	25	25	21	21	200 µg/mL	200 µg/mL			42	42	50	50					
FKCRRWAQRWRMKKLGAPSITCVRRAF [synthetic peptide homolog to LfcinB, 27 residues, from the literature]																30	64		
KCRRWAQRWRMKKLGAPSITCVR [shorter peptide, 23 residues, from the literature]																30			
RRWQWR-NH2 [LfcinB 20–25]	13	13					> 203 µM	> 203 µM			102	102							
RWQWRWQWR-NH2 [LfcinB 21–25Pal]	8	8					136 µM	> 136 µM			17	17						40	
RWRWR																			200
WRWRW																			15
WRYRW																			100
